Values joined by “and” are separate entries in the source; they are usually repeats but may differ in a detail not shown here. Equal values may be shown once.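 Interpolation was linear, between the two tested concentrations surrounding the appropriate level; five concentrations were tested over 48 hours in 96-well plates. GI50 is the concentration that inhibits growth by half. At the TGI there is no net growth.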
How the values were obtained:
Test in all cases: NCI-60 cell line screen, 48 h
786-0 renal = system: 786-0 renal
HCC-2998 colon = system: HCC-2998 colon
SW-620 colon = system: SW-620 colon
PC-3 prostate = system: PC-3 prostate
SF-268 CNS = system: SF-268 CNS
UACC-62 melanoma = system: UACC-62 melanoma
SNB-19 CNS = system: SNB-19 CNS
A498 renal = system: A498 renal
CCRF-CEM leukemia = system: CCRF-CEM leukemia
HL-60(TB) leukemia = system: HL-60(TB) leukemia

Row | Structure (SMILES) | GI50 (786-0 renal) | TGI (786-0 renal) | GI50 (HCC-2998 colon) | TGI (HCC-2998 colon) | GI50 (SW-620 colon) | TGI (SW-620 colon) | GI50 (PC-3 prostate) | TGI (PC-3 prostate) | GI50 (SF-268 CNS) | TGI (SF-268 CNS) | GI50 (UACC-62 melanoma) | TGI (UACC-62 melanoma) | GI50 (SNB-19 CNS) | TGI (SNB-19 CNS) | GI50 (A498 renal) | TGI (A498 renal) | GI50 (CCRF-CEM leukemia) | TGI (CCRF-CEM leukemia) | GI50 (HL-60(TB) leukemia) | TGI (HL-60(TB) leukemia)
1 | CCOC(=O)C1=C(C)NC(C)=C(C(=O)OCC)C1c1cc(Br)c(O)c(OC)c1 | 4.01 µM | 18 µM | 3.12 µM | 10.8 µM | 4.12 µM | 16.3 µM | 3.62 µM | 27.2 µM | 5.36 µM | 22.4 µM | 4.71 µM | 17 µM | 4.25 µM | 16.8 µM | 2.19 µM | 7.13 µM | 3.37 µM | 15.7 µM | 2.35 µM | 6.35 µM
2 | CC[C@@]1(O)C(=O)OCc2c1cc1n(c2=O)Cc2cc3c(Cl)c4c(cc3nc2-1)OCO4 |  | > 100 µM | 0.149 µM and 0.235 µM | 6.42 µM |  | > 100 µM |  | > 100 µM | 0.0216 µM | 13.2 µM | < 0.001 µM | 0.337 µM and 0.544 µM | 0.00125 µM | 0.26 µM | 0.00182 µM | 0.309 µM and 1.19 µM | < 0.001 µM | > 100 µM | < 0.001 µM | 0.00518 µM and 0.0164 µM
3 | Cc1cc2oc(=O)c(Cl)c(Cl)c2c(C)c1Cl |  | 10.2 µM |  | 14.1 µM |  | 2.94 µM |  | 23.6 µM |  | 11.5 µM |  | 20.2 µM |  | 24.6 µM |  | 34 µM |  | 7.04 µM |  | 4.93 µM
4 | Cc1ccc2nc3sc(=O)sc3nc2c1 |  | 28.8 µM |  | 30.2 µM |  | 67.9 µM |  | 27.3 µM |  | 30.1 µM |  | 32.5 µM |  | 36.7 µM |  | 20.2 µM |  | > 100 µM |  | 44.1 µM
5 | Cc1ccc(C2NC(=S)N3C(c4ccc(C)cc4)NC(=S)N23)cc1 (stereo not given) | 5.82 µM | 19.9 µM | 4.51 µM | 17.4 µM | 3.78 µM | 17.9 µM | 3.81 µM | 16.9 µM | 7.78 µM | 22.1 µM | 1.88 µM | 11.7 µM | 5.06 µM | 17.7 µM | 5.57 µM | 18 µM | 2.46 µM | 10.2 µM | 1.88 µM | 5.67 µM
6 | N#Cc1ccc(N2Cc3cc(Cl)ccc3OC3=C2C(=O)N(Cc2ccc(F)cc2)C3=O)cc1 | 0.578 µM | 1.27 µM | 0.973 µM | 2.89 µM | 0.411 µM | 1.02 µM | 0.8 µM | 2.5 µM | 0.658 µM | 1.66 µM | 0.537 µM | 1.13 µM | 1.54 µM | 9.24 µM | 3.26 µM | 15.3 µM | 0.229 µM | 1.09 µM | 0.23 µM | 0.469 µM
7 | O=C1c2ccccc2-c2c1c1c(O)cccc1n2CCCc1ccccc1 | 21 µM | 99.3 µM | 2.35 µM | 6.01 µM | 51.9 µM | > 100 µM | 16.2 µM | > 100 µM | 88.5 µM | > 100 µM | 22.7 µM | > 100 µM | 85.2 µM | > 100 µM | 17.3 µM | 43.2 µM | 24.1 µM | > 100 µM | 28.1 µM | > 100 µM
8 | CCCCCCCCCCCCNC(=O)[C@H]1CSC(c2cc(Br)cs2)N1 (stereo not given in full) | 2.51 µM | 8.32 µM | 2.73 µM | 9.41 µM | 1.4 µM | 4.19 µM | 0.981 µM | 2.25 µM | 0.598 µM | 1.42 µM |  |  | 2.48 µM | 8.49 µM | 7.38 µM | 14.1 µM | 1.03 µM | 2.51 µM | 1.01 µM | 2.49 µM
9 | O=C1c2ccccc2C(=O)c2c(NCCNCCO)ccc(NCCNCCO)c21 | 0.757 µM and 1.69 µM and 1.18 µM | 4.66 µM and 14.3 µM and 12.9 µM | 1.39 µM and 1.95 µM and 2.18 µM | 3.78 µM and 7.83 µM and 7.03 µM | 1.15 µM and 1.08 µM and 0.838 µM | 11.8 µM and 13.5 µM and 11.3 µM | 2.27 µM and 2.34 µM and 1.67 µM | 17.8 µM and 13.4 µM and 7.54 µM | 0.276 µM and 0.257 µM and 0.36 µM | 2.61 µM and 3.34 µM and 3.76 µM | 1.03 µM and 1.2 µM and 1.06 µM | 4.25 µM and 4.33 µM and 2.97 µM | 0.372 µM and 0.625 µM and 0.584 µM | 4.19 µM and 9.76 µM and 5.58 µM | 0.193 µM and 1.37 µM and 0.565 µM | 1.11 µM and 7 µM and 3.61 µM | 0.156 µM and 0.461 µM and 0.264 µM | 14.6 µM and 11.1 µM | 0.274 µM and 0.13 µM and 0.456 µM | 8.67 µM and 10.6 µM
10 | Nc1ncnc2c1nc(N)n2C1OC(CO)C(O)C1O (stereo not given) | 1.55 µM | 3.71 µM | 0.32 µM | 1.66 µM | 0.182 µM | 1.31 µM | 1.07 µM | 8.21 µM | 0.93 µM | 2.81 µM | 0.251 µM | 1.2 µM | 1.34 µM | 6.28 µM | 0.657 µM | 1.94 µM | 1.3 µM | > 22.9 µM | 0.376 µM | 3.67 µM
11 | COc1ccc(Oc2nc(Nc3ccc(N4CCOCC4)cc3)ncc2NC(=O)Nc2cc(OC)cc(OC)c2)cc1 | 1.31 µM | 5.74 µM | 2.11 µM | 7.16 µM | 3.17 µM | > 33.3 µM | 2.39 µM | 14.2 µM | 2.64 µM | > 33.3 µM | 1.99 µM | 7.41 µM | 4.66 µM | 28.8 µM | 4.75 µM | 15 µM | > 33.3 µM | > 33.3 µM | 10.8 µM | > 33.3 µM
12 | CCc1ccc(Oc2nccc(-c3c(-c4ccc(F)cc4)ncn3C3CCNCC3)n2)cc1 | 4.91 µM | 10.4 µM | 3.94 µM | 7.61 µM | 4.35 µM | 8.74 µM | 5.33 µM | 14.1 µM | 6.76 µM | 15.4 µM | 4.6 µM | 9.08 µM | 7.84 µM | 17.2 µM | 3.55 µM | 9.82 µM | 6.77 µM | 17.8 µM | 5.78 µM | 11.5 µM
13 | O=C1NC(=O)C(N2CCc3ccccc32)=C1c1ccc(Cl)cc1 | > 10 µM | > 14.5 µM | > 25 µM | > 25 µM | > 25 µM | > 25 µM | > 22.8 µM | > 25 µM | > 25 µM | > 25 µM | 24.8 µM | > 25 µM | > 25 µM | > 25 µM | > 22.4 µM | > 25 µM | > 25 µM | > 25 µM | 24.3 µM | > 25 µM

— PubChem BioAssay (NCI)
